Legend:
S. aureus Newman [1] = assay: fitness (endpoint OD595 vs no drug) (fraction); higher = more growth
In short: (§1)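 At 37 °C, bacteria in TSB, LB Lennox or CY were grown in 384-well plates from a starting OD595 of 0.01. OD595 was measured every 30 min for 14 h, with the first reading used as background. Fitness is the optical density at the switch to stationary phase as a fraction of the robust mean of no-drug control wells, capped at 1.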

S. pneumoniae D39V [2] = assay: as above
In short: as §1

B. subtilis 168 = assay: Bliss interaction score (quartile over a dose matrix) (fitness difference); higher = more antagonism (negative = synergy)
In short: (§2)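 Quartiles summarise the Bliss score over technical, biological and donor/recipient replicates, where the score is observed minus expected fitness under a product model. Expected fitness uses single-drug values inferred from combination data. Fitness is OD595 at entry into stationary phase over the plate's robust no-drug mean, capped at 1.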

S. aureus DSM 20231 = assay: as above
In short: as §2

S. aureus Newman [3] = assay: as above
In short: as §2

S. pneumoniae D39V [4] = assay: as above
In short: as §2
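For Bliss interaction score (quartile over a dose matrix) in this document: first quartile when negative (synergy) and third quartile when positive (antagonism).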

CO/N=C(\C(=O)N[C@@H]1C(=O)N2C(C(=O)[O-])=C(C[N+]3(C)CCCC3)CS[C@H]12)c1csc(N)n1 [Cefepime] + CN(C)c1cc(NC(=O)CNC(C)(C)C)c(O)c2c1C[C@H]1C[C@H]3[C@H](N(C)C)C(O)=C(C(N)=O)C(=O)[C@@]3(O)C(O)=C1C2=O [Tigecycline]
Settings | fitness
S. aureus Newman [1], first compound 0.125 µg/mL, partner 0.039 µg/mL | 0.905
S. aureus Newman [1], first compound 0.125 µg/mL, partner 0.078 µg/mL | 0.92
S. aureus Newman [1], first compound 0.125 µg/mL, partner 0.156 µg/mL | 0.882
S. aureus Newman [1], first compound 0.25 µg/mL, partner 0.039 µg/mL | 0.837
S. aureus Newman [1], first compound 0.25 µg/mL, partner 0.078 µg/mL | 0.838
S. aureus Newman [1], first compound 0.25 µg/mL, partner 0.156 µg/mL | 0.862
S. aureus Newman [1], first compound 0.5 µg/mL, partner 0.039 µg/mL | 0.72
S. aureus Newman [1], first compound 0.5 µg/mL, partner 0.078 µg/mL | 0.763
S. aureus Newman [1], first compound 0.5 µg/mL, partner 0.156 µg/mL | 0.798
S. pneumoniae D39V [2], first compound 0.007 µg/mL, partner 0.325 µg/mL | 0.996
S. pneumoniae D39V [2], first compound 0.007 µg/mL, partner 0.65 µg/mL | 0.964
S. pneumoniae D39V [2], first compound 0.007 µg/mL, partner 1.3 µg/mL | 0.955
S. pneumoniae D39V [2], first compound 0.0078 µg/mL, partner 0.65 µg/mL | 0.963
S. pneumoniae D39V [2], first compound 0.0078 µg/mL, partner 1.3 µg/mL | 0.943
S. pneumoniae D39V [2], first compound 0.0078 µg/mL, partner 2.6 µg/mL | 0.918
S. pneumoniae D39V [2], first compound 0.014 µg/mL, partner 0.325 µg/mL | ≥ 1
S. pneumoniae D39V [2], first compound 0.014 µg/mL, partner 0.65 µg/mL | 0.983
S. pneumoniae D39V [2], first compound 0.014 µg/mL, partner 1.3 µg/mL | 0.99
S. pneumoniae D39V [2], first compound 0.0155 µg/mL, partner 0.65 µg/mL | 0.91
S. pneumoniae D39V [2], first compound 0.0155 µg/mL, partner 1.3 µg/mL | 0.935
S. pneumoniae D39V [2], first compound 0.0155 µg/mL, partner 2.6 µg/mL | 0.883
S. pneumoniae D39V [2], first compound 0.028 µg/mL, partner 0.325 µg/mL | 0.951
S. pneumoniae D39V [2], first compound 0.028 µg/mL, partner 0.65 µg/mL | 0.877
S. pneumoniae D39V [2], first compound 0.028 µg/mL, partner 1.3 µg/mL | 0.865
S. pneumoniae D39V [2], first compound 0.031 µg/mL, partner 0.65 µg/mL | 0.543
S. pneumoniae D39V [2], first compound 0.031 µg/mL, partner 1.3 µg/mL | 0.698
S. pneumoniae D39V [2], first compound 0.031 µg/mL, partner 2.6 µg/mL | 0.684

Settings | Bliss interaction score
B. subtilis 168 | 0.115
S. aureus DSM 20231 | 0.0417
S. aureus Newman [3] | -0.0743
S. pneumoniae D39V [4] | 0.0368

CO/N=C(\C(=O)N[C@@H]1C(=O)N2C(C(=O)[O-])=C(C[N+]3(C)CCCC3)CS[C@H]12)c1csc(N)n1 [Cefepime] + CN[C@@H]1[C@H](O[C@H]2[C@H](O[C@H]3[C@H](O)[C@@H](O)[C@H](N=C(N)N)[C@@H](O)[C@@H]3N=C(N)N)O[C@@H](C)[C@]2(O)C=O)O[C@@H](CO)[C@H](O)[C@H]1O [Streptomycin]
fitness
Settings | partner 1 µg/mL | partner 2 µg/mL | partner 4 µg/mL | partner 8 µg/mL
S. aureus Newman [1], first compound 0.125 µg/mL | 0.939 | 0.882 | – | –
S. aureus Newman [1], first compound 0.25 µg/mL | 0.865 | 0.848 | – | –
S. aureus Newman [1], first compound 0.5 µg/mL | 0.765 | 0.773 | – | –
S. pneumoniae D39V [2], first compound 0.007 µg/mL | – | 0.949 | 0.945 | 0.965
S. pneumoniae D39V [2], first compound 0.0078 µg/mL | – | – | ≥ 1 | 0.903
S. pneumoniae D39V [2], first compound 0.014 µg/mL | – | 0.971 | 0.954 | 0.984
S. pneumoniae D39V [2], first compound 0.0155 µg/mL | – | – | 0.984 | 0.889
S. pneumoniae D39V [2], first compound 0.028 µg/mL | – | 0.864 | 0.874 | 0.912
S. pneumoniae D39V [2], first compound 0.031 µg/mL | – | – | 0.475 | 0.538

fitness, S. pneumoniae D39V [2], one replicate
Settings | first compound 0.0078 µg/mL | first compound 0.0155 µg/mL | first compound 0.031 µg/mL
partner 2 µg/mL | ≥ 1 | 0.977 | 0.468
partner 16 µg/mL | 0.883 | 0.863 | 0.481

Settings | Bliss interaction score
B. subtilis 168 | -0.159
S. aureus DSM 20231 | 0.0906
S. aureus Newman [3] | 0.0474
S. pneumoniae D39V [4] | 0.0613

CC1(C)S[C@@H]2[C@H](NC(=O)[C@H](N)c3ccc(O)cc3)C(=O)N2[C@H]1C(=O)O [Amoxicillin] + CC1=C(C(=O)O)N2C(=O)[C@@H](NC(=O)[C@H](N)c3ccccc3)[C@H]2SC1 [Cephalexin]
fitness
Settings | partner 0.25 µg/mL | partner 0.5 µg/mL | partner 1 µg/mL | partner 2 µg/mL | partner 4 µg/mL
S. aureus Newman [1], first compound 0.0625 µg/mL | 0.877 | 0.882 | 0.942 | – | –
S. aureus Newman [1], first compound 0.125 µg/mL | 0.928 | 0.921 | 0.894 | – | –
S. aureus Newman [1], first compound 0.25 µg/mL | 0.877 | 0.928 | 0.888 | – | –
S. pneumoniae D39V [2], first compound 0.0015 µg/mL | – | – | 0.791 | 0.337 | 0.0775
S. pneumoniae D39V [2], first compound 0.003 µg/mL | – | – | 0.544 | 0.125 | 0.0383

one replicate
Settings | fitness
S. aureus Newman [1], first compound 0.0625 µg/mL, partner 2 µg/mL | 0.864
S. aureus Newman [1], first compound 0.125 µg/mL, partner 2 µg/mL | 0.832
S. aureus Newman [1], first compound 0.25 µg/mL, partner 2 µg/mL | 0.705
S. pneumoniae D39V [2], first compound 0.0008 µg/mL, partner 0.125 µg/mL | 0.978
S. pneumoniae D39V [2], first compound 0.0008 µg/mL, partner 0.25 µg/mL | 0.9
S. pneumoniae D39V [2], first compound 0.0008 µg/mL, partner 0.5 µg/mL | 0.881
S. pneumoniae D39V [2], first compound 0.0008 µg/mL, partner 1 µg/mL | 0.91
S. pneumoniae D39V [2], first compound 0.0008 µg/mL, partner 2 µg/mL | 0.494
S. pneumoniae D39V [2], first compound 0.0008 µg/mL, partner 4 µg/mL | 0.02
S. pneumoniae D39V [2], first compound 0.0015 µg/mL, partner 0.125 µg/mL | 0.922
S. pneumoniae D39V [2], first compound 0.0015 µg/mL, partner 0.25 µg/mL | 0.891
S. pneumoniae D39V [2], first compound 0.0015 µg/mL, partner 0.5 µg/mL | 0.906
S. pneumoniae D39V [2], first compound 0.003 µg/mL, partner 0.125 µg/mL | 0.857
S. pneumoniae D39V [2], first compound 0.003 µg/mL, partner 0.25 µg/mL | 0.835
S. pneumoniae D39V [2], first compound 0.003 µg/mL, partner 0.5 µg/mL | 0.849
S. pneumoniae D39V [2], first compound 0.006 µg/mL, partner 1 µg/mL | 0.0722
S. pneumoniae D39V [2], first compound 0.006 µg/mL, partner 2 µg/mL | 0.0153
S. pneumoniae D39V [2], first compound 0.006 µg/mL, partner 4 µg/mL | 0.0513

Settings | Bliss interaction score
B. subtilis 168 | 0.0616
S. aureus DSM 20231 | 0.0743
S. aureus Newman [3] | 0.0592
S. pneumoniae D39V [4] | -0.0619

CCCCCCCCCC(=O)N[C@@H](Cc1c[nH]c2ccccc12)C(=O)N[C@H](CC(N)=O)C(=O)N[C@@H](CC(=O)O)C(=O)N[C@@H]1C(=O)NCC(=O)N[C@@H](CCCN)C(=O)N[C@@H](CC(=O)O)C(=O)N[C@H](C)C(=O)N[C@@H](CC(=O)O)C(=O)NCC(=O)N[C@H](CO)C(=O)N[C@@H]([C@H](C)CC(=O)O)C(=O)N[C@@H](CC(=O)c2ccccc2N)C(=O)O[C@@H]1C [Daptomycin] + C/C(=C\C(=O)OCCCCCCCCC(=O)O)C[C@@H]1OC[C@H](C[C@@H]2O[C@H]2[C@@H](C)[C@H](C)O)[C@@H](O)[C@H]1O [Pseudomonic acid]
fitness, S. aureus Newman [1], one replicate
Settings | first compound 0.125 µg/mL | first compound 0.25 µg/mL | first compound 0.5 µg/mL
partner 0.0313 µg/mL | 0.0598 | 0.0545 | 0.0362
partner 0.0625 µg/mL | 0.0219 | 0.0175 | 0.0123
partner 0.125 µg/mL | 0.0444 | 0.0303 | 0.0061

fitness, S. pneumoniae D39V [2]
Settings | first compound 1 µg/mL | first compound 2 µg/mL | first compound 4 µg/mL
partner 0.03 µg/mL | 0.895 | 0.904 | 0.893
partner 0.06 µg/mL | 0.679 | 0.765 | 0.736
partner 0.12 µg/mL | 0.324 | 0.407 | 0.408

Settings | Bliss interaction score
B. subtilis 168 | 0.058
S. aureus DSM 20231 | -0.0135
S. aureus Newman [3] | -0.0312
S. pneumoniae D39V [4] | -0.101

— the supplement of paper PMC10627819
